Measured values published in patent publication US20180303776A1, “LIPOSOMAL REHYDRATION SALT FORMULATION FOR TREATMENT OF ALCOHOL RELATED DISORDERS” (EINSOF BIOHEALTH LIMITED, priority 2017, published 2018).

How the values were obtained:
IL-1β = IL-1β in frontal cortex and plasma after ethanol intoxication; type: in vivo, rats; details: OEA pretreatment
Procedure: (§1) There now follows examples of treatment of ethanol intoxication and using OEA as Example 10. Rats received an initial dose of 5 g/kg of 30% (w/v) ethanol via oral probe and a maximum of 3 g/kg of ethanol in subsequent doses every 8 hours. Blood was collected from the tail vein 2 hours before and 2 hours after 15:00 hours of ethanol administration by gavage on days 2 to 4 in order to determine blood ethanol levels (BEL), and treated of keeping toxic ethanol doses BEL relatively constant (see the table below). Mean ethanol/rat doses were 8 g/kg, 7.5 g/kg, 7.9 g/kg and 4.9 g/kg, day 1 to 4, respectively, and the mean ethanol/rat/day (1-4) was 7.06 g/kg. In a first experiment, the time-course of the neuro-inflammation was verified after 1 hour, 6 hours and 24 hours from the last feeding forced with ethanol. In the second experiment, OEA (5 mg/kg, ip, 10 mg/kg loading dose) was injected as pretreatment 10 min before each ethanol forced feed, and brain/blood tissue samples were collected 2-4 hours after the last administration of ethanol. […]
(§2) HMGB1 is a dangerous cytokine recruited by alcohol that activates the MyD88-dependent TLR4 immune signaling pathway, inducing the translocation of the p65 subunit of NF-kB to the nucleus and increasing its transcriptional activity. […] Lipid peroxidation, measured by the accumulation of 4-HNE, induces a redox cell state related to activation of caspase 3 and cell death by caspase-mediated apoptosis 8. […]
(§3) Real-time Polymerase Chain Reaction Analysis (RT-PCR) were studied. […] Quantitative changes in mRNA levels were estimated by RT-PCR, carried out in the presence of the SYBR green probe using a […] reaction in a Rotor-Gene (Corbett Research®, Mortlake, NSW, Australia).
(§4) Levels of HMGB1, pro-inflammatory cytokines (TNF-α, IL-1β) and chemokines MCP-1 were studied. Levels of HMGB1, TNF-α, IL-1β and soluble MCP-1 were determined by Enzyme-linked immunosorbent assay (ELISA) 30 (Elabscience Biotechnology Co., Ltd., China, for HMGB-1; RayBiotech®, GA, USA, for the TNF-α, IL-1β and MCP-1). The nuclear/cytosolic HMGB1 fraction was determined by Western blot analysis.

TNF-α = TNF-α in frontal cortex and plasma after ethanol intoxication; type: in vivo, rats; details: OEA pretreatment
Procedure: as §1, §2, §3, §4

iNOS = iNOS mRNA expression in frontal cortex; type: in vivo, rats; details: OEA pretreatment
Procedure: (§5) There now follows examples of treatment of ethanol intoxication and using OEA as Example 10. Rats received an initial dose of 5 g/kg of 30% (w/v) ethanol via oral probe and a maximum of 3 g/kg of ethanol in subsequent doses every 8 hours. Blood was collected from the tail vein 2 hours before and 2 hours after 15:00 hours of ethanol administration by gavage on days 2 to 4 in order to determine blood ethanol levels (BEL), and treated of keeping toxic ethanol doses BEL relatively constant (see the table below). Mean ethanol/rat doses were 8 g/kg, 7.5 g/kg, 7.9 g/kg and 4.9 g/kg, day 1 to 4, respectively, and the mean ethanol/rat/day (1-4) was 7.06 g/kg. […]
as §2, §3

4-HNE = assay: Lipid peroxidation (HNE adduct formation) in frontal cortex; type: in vivo, rats; details: significant only in the animals treated with ethanol
Procedure: as §5, §2
Lipid peroxidation was studied. […] Levels of HNE protein adducts in cerebral cortex lysates were measured using a competitive 96-well OxySelect™ adduct HNE ELISA Kit (Cell Biolabs®, San Diego, Calif., US).

HMGB1 = HMGB1 expression in frontal cortex after ethanol intoxication; type: in vivo, rats
Procedure: as §5, with “g/kg. In a first experiment, the time-course of the neuro-inflammation was verified after 1 hour, 6 hours and 24 hours from the last feeding forced with ethanol.” for “g/kg.”
as §2
(§6) The western blot analysis was studied. […] Autoradiography was quantified by densitometry (NIH ImageJ® software, National Biosciences, Lincoln, Nebr. USA) and expressed as optical density (O.D.). […]

[1] = test system: rats exposed to ethanol intoxication; assay: Elevated cross maze test during ethanol abstinence; type: in vivo
Procedure: Tests were conducted to determine the effects of repeated OEA administration on depressive and anxiety behavior during early ethanol abstinence. Animals were tested in the cross-raised labyrinth 24 hours and 12 days after the alcohol abuse protocol and forced swimming test was performed 48 hours after the last administration of ethanol. [HMGB1 (High Mobility Group Box 1): high mobility group 1 box; TLR4 (Toll-Like Receptors 4): Receptors type Toll 4: MD2 (Myeloid Differentiation Protein 2): myeloid differentiation protein 2; MyD88 (Myeloid Differentiation Factor 88): myeloid differentiation factor 88; NF-kB (Nuclear Farctor kB): nuclear transcription factor kappa B (p65 subunit); IkB: inhibitory protein IkappaB; TNF-α (Tumor Necrosis Factor α): tumor necrosis factor alpha; IL-1β (Interleukin β): 1interleukin-1 beta; MCP-1 (Monocyte Chemoattractant Protein 1): monocyte chemotactic protein 1; INOS (inducible Nitric Oxide Synthase): inducible nitric oxide synthase; COX-2 (Cyclooxygenase 2): cyclooxygenase 2; 4-HNE (4-hydroxynonenal): 4-hydroxynonenal]. […] The forced swimming test was performed on the rats two days after the last forced feed with ethanol and the specific behaviors were recorded with a digital video camera for 5 minutes. […]

IκBα = IκBα mRNA and protein expression in frontal cortex; type: in vivo, rats; details: OEA pretreatment
Procedure: as §5, with “g/kg. In a first experiment, the time-course of the neuro-inflammation was verified after 1 hour, 6 hours and 24 hours from the last feeding forced with ethanol.” for “g/kg.”
as §2, §6

MCP-1 = MCP-1 levels in frontal cortex after ethanol intoxication; type: in vivo, rats; details: OEA pretreatment
Procedure: as §5, §2
as §4, with “The nuclear/cytosolic HMGB1 fraction was determined by Western blot analysis.” left out

caspase-3 = assay: Caspase-3 expression and activity in frontal cortex; type: in vivo, rats; details: OEA pretreatment
Procedure: as §1, §2, §6, §3
Measurement of caspase-3 activity was studied. Caspase-3 activity was determined using a fluorometric assay kit (Abnova®, Taiwan) according to the manufacturer's protocol. […]

TLR4 = TLR4 mRNA and protein expression in frontal cortex after ethanol intoxication; type: in vivo, rats; details: OEA pretreatment
Procedure: as §5, with “g/kg. In a first experiment, the time-course of the neuro-inflammation was verified after 1 hour, 6 hours and 24 hours from the last feeding forced with ethanol.” for “g/kg.”
as §2, §6

p65 subunit of NF-kB = assay: NF-κB p65 expression and transcription factor activity in frontal cortex; type: in vivo, rats
Procedure: as §5, §2
Real-time Polymerase Chain Reaction Analysis (RT-PCR) were studied. […] Quantitative changes in mRNA levels were estimated by RT-PCR, carried out in the presence of the SYBR green probe using a […] reaction in a Rotor-Gene (Corbett Research®, Mortlake, NSW, Australia). […]

COX-2 = COX-2 mRNA expression in frontal cortex; type: in vivo, rats; details: 2-4 hours after last ethanol administration, OEA pretreatment
Procedure: as §5, §2, §3

[2] = test system: rats exposed to ethanol intoxication; assay: Forced swimming test during early ethanol abstinence; type: in vivo; details: forced swimming test 48 hours after last ethanol administration; OEA pretreatment
Procedure: Tests were conducted to determine the effects of repeated OEA administration on depressive and anxiety behavior during early ethanol abstinence. Animals were tested in the cross-raised labyrinth 24 hours and 12 days after the alcohol abuse protocol and forced swimming test was performed 48 hours after the last administration of ethanol. [HMGB1 (High Mobility Group Box 1): high mobility group 1 box; TLR4 (Toll-Like Receptors 4): Receptors type Toll 4: MD2 (Myeloid Differentiation Protein 2): myeloid differentiation protein 2; MyD88 (Myeloid Differentiation Factor 88): myeloid differentiation factor 88; NF-kB (Nuclear Farctor kB): nuclear transcription factor kappa B (p65 subunit); IkB: inhibitory protein IkappaB; TNF-α (Tumor Necrosis Factor α): tumor necrosis factor alpha; IL-1β (Interleukin β): 1interleukin-1 beta; MCP-1 (Monocyte Chemoattractant Protein 1): monocyte chemotactic protein 1; INOS (inducible Nitric Oxide Synthase): inducible nitric oxide synthase; COX-2 (Cyclooxygenase 2): cyclooxygenase 2; 4-HNE (4-hydroxynonenal): 4-hydroxynonenal]. In this third experiment (n=25), the treatment with ethanol intoxication and OEA pretreatment applied in experiment 2 was repeated, and the animals were submitted to the maze test in a high cross 24 hours and 12 days after the last forced ethanol administration and the forced swimming test 48 hours after the ethanol intoxication protocol. Behavioral tests were studied. The forced swimming test was performed on the rats two days after the last forced feed with ethanol and the specific behaviors were recorded with a digital video camera for 5 minutes. These same rats were also tested by the high cross maze test equipped with infrared light (Panlab, Barcelona, Spain) 1 and 12 days after the last forced feed with ethanol, allowing the animals to freely explore the labyrinth during 5 minutes. Tests were performed 3 hours after onset of the dark phase.

caspase-8 = assay: Caspase-8 mRNA expression in frontal cortex; type: in vivo, rats; details: OEA pretreatment
Procedure: as §5, §2, §3

LPS = assay: Plasma LPS levels (intestinal permeability to endotoxins); type: in vivo, rats; details: pretreated with OEA and receiving ethanol; ethanol alone approximately 80%
Procedure: (§7) There now follows examples of treatment of ethanol intoxication and using OEA as Example 10. Rats received an initial dose of 5 g/kg of 30% (w/v) ethanol via oral probe and a maximum of 3 g/kg of ethanol in subsequent doses every 8 hours. Blood was collected from the tail vein 2 hours before and 2 hours after 15:00 hours of ethanol administration by gavage on days 2 to 4 in order to determine blood ethanol levels (BEL), and treated of keeping toxic ethanol doses BEL relatively constant (see the table below). Mean ethanol/rat doses were 8 g/kg, 7.5 g/kg, 7.9 g/kg and 4.9 g/kg, day 1 to 4, respectively, and the mean ethanol/rat/day (1-4) was 7.06 g/kg. In a first experiment, the time-course of the neuro-inflammation was verified after 1 hour, 6 hours and 24 hours from the last feeding forced with ethanol. In the second experiment, OEA (5 mg/kg, ip, 10 mg/kg loading dose) was injected as pretreatment 10 min before each ethanol forced feed, and brain/blood tissue samples were collected 2-4 hours after the last administration of ethanol.
(§8) Experimental design, drug administration and tissue/plasma collection are now discussed. […]
(§9) Plasma levels of corticosterone and LPS were studied. Corticosterone and LPS were measured in plasma using commercially available kits by radioimmunOEAsay (RIA) (Coat-A-Count®, Siemens, La., USA) or colorimetric enzyme reaction (HyCult Biotech, Uden, respectively).

corticosterone = assay: Plasma corticosterone levels; type: in vivo, rats
Procedure: as §7, §8, §9

MyD88 = MyD88 protein expression in frontal cortex after ethanol intoxication; type: in vivo, rats; details: OEA pretreatment
Procedure: as §5, with “g/kg. In a first experiment, the time-course of the neuro-inflammation was verified after 1 hour, 6 hours and 24 hours from the last feeding forced with ethanol.” for “g/kg.”
as §2, §6

MD2 = MD2 protein expression in frontal cortex after ethanol intoxication; type: in vivo, rats; details: OEA pretreatment
Procedure: as §5, with “g/kg. In a first experiment, the time-course of the neuro-inflammation was verified after 1 hour, 6 hours and 24 hours from the last feeding forced with ethanol.” for “g/kg.”
as §2, §6

CCCCCCCC/C=C\CCCCCCCC(=O)NCCO [OEA, oleoylethanolamide]
ethanol-induced increase in IL-1β protein levels (IL-1β; frontal cortex): prevented | ethanol-induced increase of IL-1β mRNA expression (IL-1β; frontal cortex): did not prevent this effect | ethanol-induced increase of IL-1β (IL-1β; plasma): prevented | ethanol-induced increase of TNF-α mRNA expression (TNF-α; frontal cortex): did not prevent this effect | ethanol-induced increase of TNF-α protein levels (TNF-α; frontal cortex): not avoided | ethanol-induced increase of TNF-α (TNF-α; plasma): partially prevented | ethanol-induced increase in the expression of iNOS mRNA (iNOS): completely prevented | HNE formation (lipid peroxidation) (4-HNE): decreased the HNE formation | increase in HMGB1 induced by ethanol intoxication (HMGB1; OEA 5 mg/kg ip 10 min before each ethanol dose): prevented | nuclear/cytoplasmic HMGB1 ratio (HMGB1; OEA pretreatment + ethanol): 1.48 | anxiety-type behavior: percentage of entries and time in the open arms ([1]; 24 hours after ethanol intoxication): clear trend showing a clear anxiolytic effect of OEA in the animals treated with ethanol and control, the Dunn post hoc test found no significant effects in multiple comparisons | anxiety-type behavior: percentage of entrances and time of permanence in the open arms ([1]; 12 days after ethanol intoxication): not significant | increase in IκBα mRNA levels induced by ethanol (IκBα): did not counteract | increase in IκBα protein expression induced by ethanol (IκBα): did not counteract | ethanol-induced increase of MCP-1 levels (MCP-1): prevented this effect | alcohol-induced overexpression of caspase-3 mRNA (caspase-3): not able to prevent this effect | ethanol-induced increase in caspase-3 activity (caspase-3): reversed | ethanol-induced overexpression of caspase-3 protein (caspase-3): prevented | ethanol-induced overexpression of TLR4 mRNA (TLR4): able to reduce the overexpression | ethanol-induced overexpression of TLR4 protein (TLR4): able to reduce the overexpression | increase in nuclear activity of p65 induced by ethanol (p65 subunit of NF-kB; frontal cortex nuclear extracts, OEA pretreatment): counteracted | increase in p65 mRNA levels induced by ethanol (p65 subunit of NF-kB; frontal cortex, OEA pre-administration): partially prevented | COX-2 mRNA levels (COX-2): reduced COX-2 mRNA levels with ethanol, but not in the animals treated with vehicle | alcohol-induced depressive symptoms [2]: able to prevent alcohol-induced depressive symptoms | immobility [2]: normalizing | latency [2]: normalizing | swimming [2]: normalizing | ethanol-induced overexpression of caspase-8 mRNA (caspase-8): reversed this effect | LPS plasma levels (LPS): 44 % increase over control | ethanol-induced increase in plasma corticosterone levels (corticosterone; animals exposed to ethanol intoxication, OEA pretreatment): completely prevented | plasma corticosterone levels (corticosterone; control animals): did not modify | increase in ethanol-induced MyD88 protein expression (MyD88): inhibited the increase | increase in MD2 protein induced by ethanol (MD2): inhibited the increase
